Where two headings read alike, the source gives them in different places. *1 amine or outer side, *2 acyl side, *3 side chain or, on linkers, in order; H or OH if unused. Where a SMILES comes first, the peptide text is derived from it. Side-chain parts run from the residue outwards. [ ]: non-standard residue; d: D form. The star is where a group is joined. αMePhe(2-F) = C[C@](N)(Cc1ccccc1F)C(=O)O; γGlu = O=C(O)[C@H](CCC(=O)[*:2])N[*:1]; αMeY = C[C@](N)(Cc1ccc(O)cc1)C(=O)O; αMeF = C[C@](N)(Cc1ccccc1)C(=O)O; αMeL = CC(C)C[C@](C)(N)C(=O)O; Lauroyl = CCCCCCCCCCCC(=O)*; Orn = NCCC[C@H](N)C(=O)O; AEEA = NCCOCCOCC(=O)O; Aib = CC(C)(N)C(=O)O
Legend:
[1] = target: T1, human GLP-1 receptor (hGLP-1R) (Homo sapiens, UniProt P43220); assay: [125I]-GLP-1 binding, SPA with membranes of HEK293 cells expressing hGLP-1R; settings: human GLP-1R; geometric mean (SEM, n); read-out: Binding Affinity Ki, nM (SEM, n) hGLP-1R
T1 construct: expressed in transfected cells; crude membranes

hGLP-1R = hGLP-1R (Homo sapiens, UniProt P43220); assay: Functional cAMP formation (HTRF) in HEK-293 clonal cells expressing hGLP-1R, 0.1% bovine casein, without or with 1.0% human serum albumin; assay type: cell-based; parameters: expressed in transfected cells; settings: for EC50: geometric mean, read-out: hGLP-1R EC50, nM (SEM, n); for Emax: HEK293, 0.1% bovine casein and 1.0% human serum albumin, percent of maximal response to GLP-1(7-36)NH2, read-out: hGLP-1R Emax, % ± SEM
Summary of the method: (§1)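 Cells were stimulated with peptide for 30 min at 37° C, then lysed in buffer carrying cAMP-d2 and anti-cAMP Eu3+-cryptate for a competitive HTRF read after at least 60 min at room temperature. The 665/620 nm ratio was converted to nM cAMP against a standard curve.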

hGIPR = target: T2, hGIPR (Homo sapiens, UniProt P48546); assay: Functional cAMP formation (HTRF) in HEK-293 clonal cells expressing hGIPR, 0.1% bovine casein, without or with 1.0% human serum albumin; assay type: cell-based; settings: for Emax: read-out: hGIPR Emax, % ± SEM; for EC50: geometric mean, read-out: hGIPR EC50, nM (SEM, n)
T2 construct: expressed in transfected cells
T2 sequence (P48546 22-466): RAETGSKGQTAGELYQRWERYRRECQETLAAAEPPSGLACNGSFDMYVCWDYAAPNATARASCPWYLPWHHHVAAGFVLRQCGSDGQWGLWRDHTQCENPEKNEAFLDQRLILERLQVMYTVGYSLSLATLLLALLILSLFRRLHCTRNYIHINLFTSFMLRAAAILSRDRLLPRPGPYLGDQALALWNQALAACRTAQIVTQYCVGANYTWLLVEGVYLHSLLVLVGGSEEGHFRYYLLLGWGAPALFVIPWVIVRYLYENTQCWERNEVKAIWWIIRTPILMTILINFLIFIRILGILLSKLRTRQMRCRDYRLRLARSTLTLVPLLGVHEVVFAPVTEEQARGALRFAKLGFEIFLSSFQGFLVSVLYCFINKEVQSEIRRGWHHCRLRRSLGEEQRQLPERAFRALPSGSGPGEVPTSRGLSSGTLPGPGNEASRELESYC
Summary of the method: as §1

[2] = target: T3, human GIP receptor (hGIPR) (Homo sapiens, UniProt P48546); assay: [125I]-GIP binding, SPA with membranes of CHO cells expressing hGIPR; settings: human GIPR; geometric mean (SEM, n); read-out: Binding Affinity Ki, nM (SEM, n) hGIPR
T3 construct: expressed in transfected cells; crude membranes
T3 sequence (P48546 22-466): T2 sequence (P48546 22-466)

hGCGR = target: T4, hGCGR (Homo sapiens, UniProt P47871); assay: Functional cAMP formation (HTRF) in HEK-293 clonal cells expressing hGCGR, 0.1% bovine casein, without or with 1.0% human serum albumin; assay type: cell-based; settings: geometric mean, read-out: hGCGR EC50, nM (SEM, n)
T4 construct: expressed in transfected cells
Summary of the method: as §1

[3] = cAMP, incubated at 37° C., 0.1% bovine casein (no human serum albumin)
[4] = HEK293, 0.1% bovine casein and 1.0% human serum albumin, 37° C., percent of maximal response to GIP(1-42)NH2
[5] = HEK293, percent of maximal response to GIP(1-42)NH2, 37° C., 0.1% bovine casein, arithmetic mean
[6] = 0.1% bovine casein and 1.0% human serum albumin, 37° C.
[7] = cAMP, 37° C., 0.1% bovine casein (no human serum albumin)

T4 sequence (P47871 26-477): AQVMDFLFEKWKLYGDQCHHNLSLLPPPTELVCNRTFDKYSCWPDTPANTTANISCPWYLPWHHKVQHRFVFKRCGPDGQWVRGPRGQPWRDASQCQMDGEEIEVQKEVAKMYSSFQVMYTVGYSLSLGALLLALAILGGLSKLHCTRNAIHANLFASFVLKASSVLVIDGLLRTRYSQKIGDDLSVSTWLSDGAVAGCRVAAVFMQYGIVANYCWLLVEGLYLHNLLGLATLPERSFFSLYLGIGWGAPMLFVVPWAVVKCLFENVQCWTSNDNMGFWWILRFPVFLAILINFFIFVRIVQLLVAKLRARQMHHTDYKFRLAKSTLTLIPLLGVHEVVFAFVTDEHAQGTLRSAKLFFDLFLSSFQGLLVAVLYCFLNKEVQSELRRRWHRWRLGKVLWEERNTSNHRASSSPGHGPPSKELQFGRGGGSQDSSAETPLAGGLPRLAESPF
T1 sequence (P43220 24-463): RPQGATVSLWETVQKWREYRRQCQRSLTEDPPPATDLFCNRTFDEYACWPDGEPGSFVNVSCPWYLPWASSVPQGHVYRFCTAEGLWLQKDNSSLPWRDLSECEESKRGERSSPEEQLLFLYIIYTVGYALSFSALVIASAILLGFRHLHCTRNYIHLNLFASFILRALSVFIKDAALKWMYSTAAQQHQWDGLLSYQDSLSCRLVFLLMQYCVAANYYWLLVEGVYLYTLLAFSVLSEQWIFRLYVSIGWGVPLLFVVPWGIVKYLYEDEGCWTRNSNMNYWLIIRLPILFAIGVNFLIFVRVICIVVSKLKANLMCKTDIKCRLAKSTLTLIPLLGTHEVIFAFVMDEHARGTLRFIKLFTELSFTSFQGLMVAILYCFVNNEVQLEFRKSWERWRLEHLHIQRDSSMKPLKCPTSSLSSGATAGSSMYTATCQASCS
Chain of hGLP-1R (P43220 24-463): as above

| Compound | Ki [1] | EC50 (hGLP-1R; [3]) | Emax (hGIPR; [4]) | Emax (hGIPR; [5]) | EC50 (hGIPR; [3]) | Ki [2] | EC50 (hGCGR; [6]) | EC50 (hGCGR; [3]) | EC50 (hGLP-1R; [6]) | Emax (hGLP-1R; 37° C.) | EC50 (hGIPR; [6]) | EC50 (hGLP-1R; [7]) | EC50 (hGIPR; [7]) | EC50 (hGCGR; [7]) |
| --- | --- | --- | --- | --- | --- | --- | --- | --- | --- | --- | --- | --- | --- | --- |
| CC[C@H](C)[C@H](NC(=O)[C@H](CC(C)C)NC(=O)[C@](C)(Cc1ccc(O)cc1)NC(=O)[C@@H](CCC(=O)O)NC(=O)[C@@H](NC(=O)[C@H](Cc1cc(F)cc(F)c1)NC(=O)[C@H](CCC(=O)O)NC(=O)C(C)(C)NC(=O)[C@H](CCC(N)=O)NC(=O)[C@H](C)NC(=O)[C@H](CCCCNC(=O)COCCOCCNC(=O)COCCOCCNC(=O)CC[C@H](NC(=O)CCCCCCCCCCCCC(=O)O)C(=O)O)NC(=O)[C@H](CCCN)NC(=O)[C@H](CC(=O)O)NC(=O)[C@H](CC(C)C)NC(=O)[C@](C)(CC(C)C)NC(=O)[C@@H](NC(=O)[C@H](CO)NC(=O)[C@H](Cc1ccncc1)NC(=O)[C@H](CC(=O)O)NC(=O)[C@H](CO)NC(=O)[C@@H](NC(=O)[C@](C)(Cc1ccccc1F)NC(=O)[C@@H](NC(=O)CNC(=O)[C@H](CCC(=O)O)NC(=O)C(C)(C)NC(=O)[C@@H](N)Cc1ccc(O)cc1)[C@@H](C)O)[C@@H](C)O)[C@@H](C)CC)[C@@H](C)CC)C(=O)N[C@@H](CCC(=O)O)C(=O)NCC(=O)NCC(=O)N[C@@H](CCCCNC(=O)COCCOCCNC(=O)COCCOCCNC(=O)CC[C@H](NC(=O)CCCCCCCCCCCCC(=O)O)C(=O)O)C(=O)N[C@@H](CO)C(=O)N[C@@H](CO)C(=O)NCC(=O)N[C@@H](C)C(=O)N1CCC[C@H]1C(=O)N1CCC[C@H]1C(=O)N1CCC[C@H]1C(=O)N[C@@H](CO)C(N)=O [Example 65] | 1.05 nM | 0.3 nM | 93.8 ± 6.73% | 95.2 ± 2.93% | 0.0139 nM | 0.121 nM | > 9950 nM | > 9950 nM | – | – | – | – | – | – |
| CCCCCCCCCCCC(=O)N[C@@H](CCC(=O)NCCOCCOCC(=O)NCCOCCOCC(=O)NCCCC[C@H](NC(=O)[C@H](CO)NC(=O)[C@@H]1CCCN1C(=O)[C@@H]1CCCN1C(=O)[C@@H]1CCCN1C(=O)[C@H](C)NC(=O)CNC(=O)[C@H](CO)NC(=O)[C@H](CO)NC(=O)[C@@H]1CCCN1C(=O)CNC(=O)CNC(=O)[C@H](CCC(=O)O)NC(=O)[C@@H](NC(=O)[C@H](CC(C)C)NC(=O)[C@](C)(Cc1ccc(O)cc1)NC(=O)[C@@H](CCC(=O)O)NC(=O)[C@@H](NC(=O)[C@H](Cc1ccccc1)NC(=O)[C@H](CCC(=O)O)NC(=O)C(C)(C)NC(=O)[C@H](CCC(N)=O)NC(=O)[C@H](C)NC(=O)[C@H](CCCCNC(=O)COCCOCCNC(=O)COCCOCCNC(=O)CC[C@H](NC(=O)CCCCCCCCCCC)C(=O)O)NC(=O)[C@H](CCCN)NC(=O)[C@H](CC(=O)O)NC(=O)[C@H](CC(C)C)NC(=O)[C@](C)(CC(C)C)NC(=O)[C@@H](NC(=O)[C@H](CO)NC(=O)[C@H](Cc1ccncc1)NC(=O)[C@H](CC(=O)O)NC(=O)[C@H](CO)NC(=O)[C@@H](NC(=O)[C@](C)(Cc1ccccc1F)NC(=O)[C@@H](NC(=O)CNC(=O)[C@H](CCC(=O)O)NC(=O)C(C)(C)NC(=O)[C@@H](N)Cc1ccc(O)cc1)[C@@H](C)O)[C@@H](C)O)[C@@H](C)CC)[C@@H](C)CC)[C@@H](C)CC)C(N)=O)C(=O)O [Example 141] | 0.194 nM | – | 96 ± 7.42% | 98.8 ± 1.09% | – | 0.0291 nM | > 9950 nM | > 9950 nM | 5.78 nM | 115 ± 2.04% | 0.379 nM | – | – | – |
| CCCCCCCCCCCC(=O)N[C@@H](CCC(=O)NCCOCCOCC(=O)NCCOCCOCC(=O)NCCCC[C@H](NC(=O)[C@H](CCCN)NC(=O)[C@H](CC(=O)O)NC(=O)[C@H](CC(C)C)NC(=O)[C@](C)(CC(C)C)NC(=O)[C@@H](NC(=O)C(C)(C)NC(=O)[C@H](CCCCNC(=O)COCCOCCNC(=O)COCCOCCNC(=O)CC[C@H](NC(=O)CCCCCCCCCCC)C(=O)O)NC(=O)[C@H](CC(=O)O)NC(=O)[C@H](CO)NC(=O)[C@@H](NC(=O)[C@](C)(Cc1ccccc1F)NC(=O)[C@@H](NC(=O)CNC(=O)[C@H](CCC(=O)O)NC(=O)C(C)(C)NC(=O)[C@@H](N)Cc1ccc(O)cc1)[C@@H](C)O)[C@@H](C)O)[C@@H](C)CC)C(=O)N[C@@H](C)C(=O)N[C@@H](CCC(N)=O)C(=O)NC(C)(C)C(=O)N[C@@H](CCC(=O)O)C(=O)N[C@@H](Cc1ccccc1)C(=O)N[C@H](C(=O)N[C@H](CCC(=O)O)C(=O)N[C@@](C)(Cc1ccc(O)cc1)C(=O)N[C@@H](CC(C)C)C(=O)N[C@H](C(=O)N[C@@H](CCC(=O)O)C(=O)NCC(=O)NCC(=O)N1CCC[C@H]1C(=O)N[C@@H](CO)C(=O)N[C@@H](CO)C(=O)NCC(=O)N[C@@H](C)C(=O)N1CCC[C@H]1C(=O)N1CCC[C@H]1C(=O)N1CCC[C@H]1C(=O)N[C@@H](CO)C(N)=O)[C@@H](C)CC)[C@@H](C)CC)C(=O)O [Example 292] | 0.289 nM | – | 88.4% | – | – | 0.0161 nM | > 9950 nM | – | 4.35 nM | – | – | 0.0758 nM | 0.0062 nM | > 9950 nM |
| CCCCCCCCCCCC(=O)N[C@@H](CCC(=O)NCCOCCOCC(=O)NCCOCCOCC(=O)NCCCC[C@H](NC(=O)[C@H](CCCN)NC(=O)[C@H](CC(=O)O)NC(=O)[C@H](CC(C)C)NC(=O)[C@](C)(CC(C)C)NC(=O)[C@@H](NC(=O)[C@H](CO)NC(=O)[C@H](CCCCNC(=O)COCCOCCNC(=O)COCCOCCNC(=O)CC[C@H](NC(=O)CCCCCCCCCCC)C(=O)O)NC(=O)[C@H](CC(=O)O)NC(=O)[C@H](CO)NC(=O)[C@@H](NC(=O)[C@](C)(Cc1ccccc1F)NC(=O)[C@@H](NC(=O)CNC(=O)[C@H](CCC(=O)O)NC(=O)C(C)(C)NC(=O)[C@@H](N)Cc1ccc(O)cc1)[C@@H](C)O)[C@@H](C)O)[C@@H](C)CC)C(=O)N[C@@H](C)C(=O)N[C@@H](CCC(N)=O)C(=O)NC(C)(C)C(=O)N[C@@H](CCC(=O)O)C(=O)N[C@@](C)(Cc1ccccc1)C(=O)N[C@H](C(=O)N[C@H](CCC(=O)O)C(=O)N[C@@](C)(Cc1ccc(O)cc1)C(=O)N[C@@H](CC(C)C)C(=O)N[C@H](C(=O)N[C@@H](CCC(=O)O)C(=O)NCC(=O)NCC(=O)N1CCC[C@H]1C(=O)N[C@@H](CO)C(=O)N[C@@H](CO)C(=O)NCC(=O)N[C@@H](C)C(=O)N1CCC[C@H]1C(=O)N1CCC[C@H]1C(=O)N1CCC[C@H]1C(=O)N[C@@H](CO)C(N)=O)[C@@H](C)CC)[C@@H](C)CC)C(=O)O [Example 293] (H-Y[Aib]EGT[αMePhe(2-F)]TSDK([AEEA-AEEA-γGlu-Lauroyl])SI[αMeL]LD[Orn]K([AEEA-AEEA-γGlu-Lauroyl])AQ[Aib]E[αMeF]I[dE][αMeY]LIEGGPSSGAPPPS-NH2) | 0.211 nM | – | 96.6% | – | – | 0.022 nM | > 9950 nM | – | – | 99.4% | – | 0.102 nM | 0.00915 nM | > 9950 nM |
